Source: patent US7968601B2, “Adamantyl acetamides as 11-β hydroxysteroid dehydrogenase inhibitors” (Janssen Pharmaceutica N.V., priority 2002, dated 2011)

Legend:
[1] = target: T1, 11b-HSD2 (Homo sapiens, UniProt P80365); assay: Enzymatic assay, 11b-HSD2 dependent dehydrogenase activity; assay type: biochemical; conditions: 11b-HSD2 dehydrogenase activity, pIC50 scored 1-3, read-out: [C1] HSD2 prot Dehydro Score
T1 sequence (P80365 1-405): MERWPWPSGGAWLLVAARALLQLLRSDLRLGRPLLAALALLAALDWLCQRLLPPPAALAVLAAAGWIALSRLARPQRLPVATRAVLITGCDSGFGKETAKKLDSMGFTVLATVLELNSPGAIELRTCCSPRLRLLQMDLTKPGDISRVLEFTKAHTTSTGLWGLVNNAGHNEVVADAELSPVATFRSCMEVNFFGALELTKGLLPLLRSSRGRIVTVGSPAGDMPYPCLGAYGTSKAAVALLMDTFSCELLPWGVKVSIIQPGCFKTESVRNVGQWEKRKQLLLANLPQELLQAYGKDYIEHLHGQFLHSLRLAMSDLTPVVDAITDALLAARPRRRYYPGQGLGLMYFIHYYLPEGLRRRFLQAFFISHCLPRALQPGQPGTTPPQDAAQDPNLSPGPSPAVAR
Method: The effects on the 11b-HSD2 dependent dehydrogenase activity was studied in a reaction mixture containing 0.1M sodium phosphate buffer pH 7.5, 300 μM NAD, 100 nM cortisol (of which 2 nM is 3H-radio labelled), 1 μl drug and/or solvent and 2.5 μg recombinant protein in a final volume of 100 μl.
(§1) All incubations were performed for 45 min at 37 C in a water bath. The reaction was stopped by adding 100 μl acetonitrile containing 20 μg corticosterone as internal standard. After centrifugation, the product formation was analysed in the supernatant by HPLC on a Hypersyl BDS-C18 column using 0.05 mM ammonium acetate/methanol (50/50) as solvent. In all of the aforementioned assays, the drugs to be tested were taken from a stock solution and tested at a final concentration ranging from […] to 3.10^−9M. From the thus obtained dose response curves, the pIC50 value was calculated and scored as follows; Score 1=pIC50 value<5, Score 2=pIC50 value in the range of 5 to 6, Score 3=pIC50 value>6. (in this table NT stands for Not Tested).

[2] = target: T2, 11b-HSD1 (Mus musculus, UniProt P50172); assay: Cellular assay, 11b-HSD1 activity in differentiated 3T3-L1 cells; assay type: cell-based; conditions: 4 hour pre-incubation, pIC50 scored 1-3, read-out: [C2] HSD1 cellular 3T3-L1 Score
T2 construct: endogenous in cells; host or cells: 3T3-L1 (ATCC-CL-173), differentiated into adipocytes
Method: The effects on 11b-HSD1 activity was measured in differentiated 3T3-L1 cells and rat hepatocytes.
Mouse fibroblast 3T3-L1 cells (ATCC-CL-173) were seeded at a density of 16500 cells/ml in 12 well plates and grown for 7 days in DMEM medium (supplemented with 10% heat inactivated foetal calf serum, 2 mM glutamine and 25 mg gentamycin) at 37 C in a humidified 5% CO2 atmosphere. Medium was refreshed twice a week. Fibroblasts were differentiated into adipocytes at 37 C in a 5% CO2 humidified atmosphere in growth medium containing 2 μg/ml insulin, 55 μg/ml IBMX and 39.2 μg/ml dexamethasone.
Following a 4 hour pre-incubation with test compound, 0.5 μCi ^3H-cortisone or dehydrocorticosterone, was added to the cultures. One hour later, the medium was extracted on Extrelut^3-columns with 15 ml diethyl ether and the extract was analysed by HPLC as described above.
(§2) As for the enzymatic assays, the compounds to be tested were taken from a stock solution and tested at a final concentration ranging from […] to 3.10^−9M. From the thus obtained dose response curves, the pIC50 value was calculated and scored as follows; Score 1=pIC50 value<5, Score 2=pIC50 value in the range of 5 to 6, Score 3=pIC50 value>6. (in this table NT stands for Not Tested).

[3] = target: T1, 11b-HSD2; assay: Cellular assay, 11b-HSD2 activity in HepG2 cells; assay type: cell-based; design: endogenous in cells; host or cells: HepG2 (ATCC HB-8065); conditions: 4 hour pre-incubation, pIC50 scored 1-3, read-out: [C2] HSD2 cellular HepG2 Score
Method: The effects on 11b-HSD2 activity was studied in HepG2 and LCC-PK1-cells HepG2-cells (ATCC HB-8065) were seeded in 12 well plates at a density of 100,000 cells/ml and grown at 37 C in a humidified 5% CO2 atmosphere in MEM-Rega-3 medium supplemented with 10% heat inactivated foetal calf serum, 2 mM L-glutamine and sodium bicarbonate). Medium was refreshed twice a week. Pig kidney cells (LCC-PK1, ATCC CRL-1392) were seeded at a density of 150,000 cells/ml in 12 well plates and grown at 37 C in a humidified 5% CO2 atmosphere in Medium 199 supplemented with Earls modified salt solution, 100 U/ml penicillin, 100 μg/ml streptomycin and 10% foetal calf serum. Medium was refreshed twice a week. Twenty four hours prior to the onset of the experiment, medium was changed by medium containing 10% charcoal stripped foetal calf serum.
Following a 4 hour pre-incubation with test compound, 0.5 μCi ^3H-cortisol or corticosterone, was added to the cultures. One hour later, the medium was extracted on Extrelut^3-columns with 15 ml diethyl ether and the extract was analysed by HPLC as described above.
as §2

[4] = target: 11b-HSD1 (Homo sapiens, UniProt P28845); assay: Enzymatic assay, 11b-HSD1 reductase activity (conversion of cortisone into cortisol); assay type: biochemical; conditions: pIC50 scored 1-3, read-out: [C1] HSD1-prot Reduct Score
Method: The effects of compounds on 11b-HSD1 dependent conversion of cortisone into cortisol (reductase activity) was studied in a reaction mixture containing 30 mM Tris-HCl buffer pH 7.2, 180 μM NADPH, 1 mM EDTA, 2 μM cortisone, 1 μl drug and/or solvent and 11 μg recombinant protein in a final volume of 100 μl.
as §1

T2 sequence (P50172 whole entry): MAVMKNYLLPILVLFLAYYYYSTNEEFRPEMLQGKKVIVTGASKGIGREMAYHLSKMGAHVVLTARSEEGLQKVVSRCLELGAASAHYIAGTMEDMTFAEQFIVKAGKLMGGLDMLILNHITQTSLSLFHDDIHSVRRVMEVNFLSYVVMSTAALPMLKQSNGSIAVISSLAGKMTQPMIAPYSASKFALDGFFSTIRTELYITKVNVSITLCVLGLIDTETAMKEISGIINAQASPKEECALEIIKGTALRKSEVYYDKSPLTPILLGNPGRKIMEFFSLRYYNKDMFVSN
Chain of 11b-HSD1 (Homo sapiens, UniProt P28845) (P28845 whole entry): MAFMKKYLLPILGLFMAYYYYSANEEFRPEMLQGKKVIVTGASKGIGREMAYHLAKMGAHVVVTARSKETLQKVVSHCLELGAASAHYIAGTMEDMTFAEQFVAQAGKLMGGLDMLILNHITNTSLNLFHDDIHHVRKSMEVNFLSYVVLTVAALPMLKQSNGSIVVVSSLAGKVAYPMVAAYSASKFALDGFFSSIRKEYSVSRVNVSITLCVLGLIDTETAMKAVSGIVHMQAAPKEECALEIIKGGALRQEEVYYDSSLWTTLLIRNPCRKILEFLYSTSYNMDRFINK

SMILES	IC50 [1] [µM]	IC50 [2] [µM]	IC50 [3] [µM]	IC50 [4] [µM]
CC(=Cc1ccccc1)C(=O)NC1C2CC3CC(C2)CC1C3 (stereo not shown) [Compound 151]	> 10	< 1	> 10	1 to 10
CC(C)(C(=O)N[C@@H]1[C@@H]2CC3C[C@H]1C[C@@](O)(C3)C2)c1cccc(CCC(=O)O)c1 [Compound 242]	> 10	< 1	> 10	1 to 10
O=C(N[C@H]1[C@@H]2CC3C[C@H]1C[C@](O)(C3)C2)C1CCc2ccccc2C1 (stereo partly shown) [Compound 243]	> 10	< 1	> 10	< 1
O=C(NC1C2CC3CC(C2)CC1C3)C1=CCCCc2ccccc21 (stereo not shown) [Compound 168]	> 10	< 1	> 10	< 1
COc1cccc2c1OCC=C2C(=O)NC1C2CC3CC(C2)CC1C3 (stereo not shown) [Compound 171]	> 10	< 1	> 10	< 1
Cc1cc(CCC(=O)N2CCOCC2)cc(C(C)(C)C(=O)N[C@H]2[C@@H]3CC4C[C@H]2C[C@](O)(C4)C3)c1 [Compound 248]	> 10	< 1	> 10	< 1
O=C(O)CCc1cccc2c1CCCC2C(=O)N[C@H]1[C@@H]2CC3C[C@H]1C[C@](F)(C3)C2 (stereo partly shown) [Compound 258]	> 10	< 1	> 10	< 1
CC(C)(C(=O)N[C@H]1[C@@H]2CC3C[C@H]1C[C@](F)(C3)C2)c1cccc(CCC(=O)O)c1 [Compound 217]	> 10	< 1	> 10	1 to 10
COc1cc(C)cc(C(C)(C)C(=O)N[C@H]2[C@@H]3CC4C[C@H]2C[C@](F)(C4)C3)c1 [Compound 263]	> 10	< 1	> 10	> 10
O=C(O)CCc1cccc2c1CCCC2C(=O)NC1C2CC3CC(C2)CC1C3 (stereo not shown) [Compound 240]	> 10	< 1	> 10	> 10
O=C(NC1C2CC3CC(C2)CC1C3)C1CCOc2ccccc21 (stereo not shown) [Compound 167]	> 10	< 1	> 10	< 1

Second part, the compound after the results:

IC50 [1] [µM]	IC50 [2] [µM]	IC50 [3] [µM]	IC50 [4] [µM]	SMILES
> 10	< 1	> 10	< 1	CC(C)(C(=O)NC1C2CC3CC(C2)CC1C3)c1cccc(O)c1 (stereo not shown) [Compound 5]
> 10	< 1	> 10	< 1	CCOC(=O)CCc1cccc(C(C)(C)C(=O)NC2C3CC4CC(C3)CC2C4)c1 (stereo not shown) [Compound 193]
> 10	< 1	> 10	< 1	Cc1cc(CCC(=O)O)cc(C(C)(C)C(=O)NC2C3CC4CC(C3)CC2C4)c1 (stereo not shown) [Compound 230]
> 10	< 1	> 10	< 1	CN(C)CCCOc1cccc(C(C)(C)C(=O)NC2C3CC4CC(C3)CC2C4)c1 (stereo not shown) [Compound 92]
> 10	< 1	> 10	< 1	CC(C)(C(=O)NC1C2CC3CC(C2)CC1C3)c1cccc(CCC(=O)O)c1 (stereo not shown) [Compound 196]
